Measurements as given in patent US20190367516A1 (Bayer Pharma Aktiengesellschaft, priority 2015, published 2019).
Read-outs that look alike come from different tables or passages of the source.

What was measured:
human M2 receptor [1] = biological target: T1, human M2 receptor (Homo sapiens, UniProt P08172); assay type: cell-based; conditions: α >1 = positive cooperativity
T1 sequence (P08172 1-466): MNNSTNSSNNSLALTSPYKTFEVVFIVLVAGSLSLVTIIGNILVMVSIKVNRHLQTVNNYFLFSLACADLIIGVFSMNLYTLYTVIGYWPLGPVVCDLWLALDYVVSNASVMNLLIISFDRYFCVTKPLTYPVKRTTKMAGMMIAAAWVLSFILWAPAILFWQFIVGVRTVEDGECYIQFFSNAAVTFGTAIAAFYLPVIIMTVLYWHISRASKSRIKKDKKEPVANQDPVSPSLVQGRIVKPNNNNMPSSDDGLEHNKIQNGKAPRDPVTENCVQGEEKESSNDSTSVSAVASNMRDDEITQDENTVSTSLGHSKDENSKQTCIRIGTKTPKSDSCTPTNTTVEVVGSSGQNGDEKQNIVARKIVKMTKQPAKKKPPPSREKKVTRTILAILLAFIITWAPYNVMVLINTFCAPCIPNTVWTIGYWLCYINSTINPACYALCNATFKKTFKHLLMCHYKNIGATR
Procedure: B-1.2. Determination of Positive Cooperativity (α Factor)
In contrast to the EC50 determination of the test substances (see B-1.1), however, this is not done using one acetylcholine concentration; instead, every concentration of the test substance is combined with an acetylcholine 8-point dose-response curve. […] The shift in the acetylcholine dose-response curve in the presence of increasing concentrations of the test substance is analysed and quantified by means of GraphPad PRISM (Allosteric EC50 shift). […] Positive cooperativity is the hallmark of a positive allosteric modulator. […] The greater the magnitude of the α value, the greater the extent of cooperativity between orthosteric and allosteric.

human M2 receptor [2] = biological target: T1, human M2 receptor; conditions: for Emax: read-out: Efficiency, boosting of the acetylcholine effect at EC20 acetylcholine concentration
[3] = Receptor activity EC50, M2-GIRK1/4 activation test, acetylcholine at EC20, allosteric potency, in some cases mean values from two or more determinations
[4] = Receptor activity EC50, allosteric potency at EC20 acetylcholine, M2-GIRK1/4 reporter cells, in some cases mean of two or more determinations

Question: With `CCC(NC(=O)c1cn(-c2c(F)cc(F)cc2F)c2nc(N3C[C@@H](O)[C@H](O)C3)ccc2c1=O)C(F)(F)C(F)(F)F` (single isomer, unassigned) [Example 524] as the compound, how does the “Cooperativity (alpha factor)” value (human M2 receptor [1]; shift of acetylcholine dose-response curve (Allosteric EC50 shift)) read?
Answer: The value was 60.

Question: How did the “Cooperativity (alpha factor)” value (human M2 receptor [1]; shift in the acetylcholine dose-response curve (Allosteric EC50 shift, GraphPad PRISM)) turn out when `CN(C)c1ccc2c(=O)c(C(=O)NCc3c(Cl)cccc3C(F)(F)F)cn(-c3ccc(F)cc3F)c2n1` [Example 58, N-[2-Chloro-6-(trifluoromethyl)benzyl]-1-(2,4-difluorophenyl)-7-(dimethylamino)-4-oxo-1,4-dihydro-l,8-naphthyridine-3-carboxamide] was run?
Answer: Its value is 9.

Question: For `O=C(NC12CC3CC(CC(C3)C1)C2)c1cn(-c2ccc(F)cc2F)c2nc(N3CCSC3)ccc2c1=O` [Example 129, 1-(2,4-Difluorophenyl)-4-oxo-7-(1,3-thiazolidin-3-yl)-N-(tricyclo[3.3.1.1^3,7]dec-1-yl)-1,4-dihydro-1,8-naphthyridine-3-carboxamide], which EC50 (human M2 receptor [2]; [3]) is on record?
Answer: Its EC50 is 0.045 µM.

Question: What does the source list for `CC[C@H](NC(=O)c1cn(-c2c(F)cc(F)cc2F)c2nc(N3C[C@@H](NC(C)=O)CC3=O)ccc2c1=O)C(F)(F)F` [Example 517, 7-[(4S)-4-Acetamido-2-oxopyrrolidin-1-yl]-4-oxo-N-[(2S)-1,1,1-trifluorobutan-2-yl]-1-(2,4,6-trifluorophenyl)-1,4-dihydro-1,8-naphthyridine-3-carboxamide]?
Answer: EC50 (human M2 receptor [2]; [4]): 0.085 µM; Emax (human M2 receptor [2]; M2-GIRK1/4 reporter cells): 88.5%

Question: With `O=C(NC12CC3CC(CC(C3)C1)C2)c1cn(-c2ccc(F)cc2F)c2nc(N3CCC(F)(F)C3)ccc2c1=O` [Example 73, 1-(2,4-Difluorophenyl)-7-(3,3-difluoropyrrolidin-1-yl)-4-oxo-N-(tricyclo[3.3.1.1^3,7]dec-1-yl)-1,4-dihydro-1,8-naphthyridine-3-carboxamide] as the compound, how does the EC50 (human M2 receptor [2]; [3]) read?
Answer: The EC50 was 0.073 µM.

Question: How did the EC50 (human M2 receptor [2]; [3]) turn out when `CN(C)c1ccc2c(=O)c(C(=O)NC3(C)CCCCC3)cn(-c3ccc(F)cc3Cl)c2n1` [Example 156, 1-(2-Chloro-4-fluorophenyl)-7-(dimethylamino)-N-(1-methylcyclohexyl)-4-oxo-1,4-dihydro-1,8-naphthyridine-3-carboxamide] was run?
Answer: Its EC50 is 0.086 µM.

Question: With `O=C(NC12CCC(F)(CC1)CC2)c1cn(-c2ccc(F)cc2F)c2nc(N3CC[C@H](F)C3)ccc2c1=O` [Example 63, 1-(2,4-Difluorophenyl)-N-(4-fluorobicyclo[2.2.2]oct-1-yl)-7-[(3S)-3-fluoropyrrolidin-1-yl]-4-oxo-1,4-dihydro-1,8-naphthyridine-3-carboxamide] as the compound, how does the EC50 (human M2 receptor [2]; [3]) read?
Answer: Its EC50 is 0.04 µM.

Question: Which EC50 (human M2 receptor [2]; [3]) does the source give for `CCCC(NC(=O)c1cn(-c2ccc(F)cc2F)c2nc(NCCF)ccc2c1=O)C(F)(F)F` (racemic) [Example 86, rac-1-(2,4-Difluorophenyl)-7-[(2-fluoroethyl)amino]-4-oxo-N-[(2R)-1,1,1-trifluoropentan-2-yl]-1,4-dihydro-1,8-naphthyridine-3-carboxamide] here?
Answer: The EC50 was 0.108 µM.

Question: Which EC50 (human M2 receptor [2]; [4]) does the source give for `O=C(N[C@@H](C1CC1)C(F)(F)F)c1cn(-c2c(F)cc(F)cc2F)c2nc(N3CCCNC3=O)ccc2c1=O` [Example 604, N-[(1S)-1-Cyclopropyl-2,2,2-trifluoroethyl]-4-oxo-7-(2-oxotetrahydropyrimidin-1(2H)-yl)-1-(2,4,6-trifluorophenyl)-1,4-dihydro-1,8-naphthyridine-3-carboxamide] here?
Answer: The EC50 was 0.025 µM.

Question: And the Emax (human M2 receptor [2]; M2-GIRK1/4 reporter cells)?
Answer: The Emax was 93.5%.

Question: Which results are given for `CC[C@H](NC(=O)c1cn(-c2c(F)cc(F)cc2F)c2nc(N3CCC(CO)(CO)CC3)ccc2c1=O)C(F)(F)F` [Example 500]?
Answer: EC50 (human M2 receptor [2]; [4]): 0.076 µM; Emax (human M2 receptor [2]; M2-GIRK1/4 reporter cells): 100%

Question: For `CC[C@@H](NC(=O)c1cn(-c2ccc(F)cc2F)c2nc(N3C(=O)NCC3C)ccc2c1=O)C(F)(F)F` (stereo partly drawn) [Example 434, 1-(2,4-Difluorophenyl)-7-[5-methyl-2-oxoimidazolidin-1-yl]-4-oxo-N-[(2R)-1,1,1-trifluorobutan-2-yl]-1,4-dihydro-1,8-naphthyridine-3-carboxamide], which EC50 (human M2 receptor [2]; [4]) is on record?
Answer: The EC50 was 0.061 µM.

Question: What about the Emax (human M2 receptor [2]; M2-GIRK1/4 reporter cells) of the same compound?
Answer: Its Emax is 92%.

Question: `CCC(NC(=O)c1cn(-c2ccc(F)cc2F)c2nc(N3CC(CO)C3)ccc2c1=O)C(F)(F)F` (racemic) [Example 26, rac-1-(2,4-Difluorophenyl)-7-[3-(hydroxymethyl)azetidin-1-yl]-4-oxo-N-[1,1,1-trifluorobutan-2-yl]-1,4-dihydro-1,8-naphthyridine-3-carboxamide] was tested. Which EC50 (human M2 receptor [2]; [3]) did it give?
Answer: The EC50 was 0.164 µM.

Question: For `CCCC(NC(=O)c1cn(-c2ccc(F)cc2F)c2nc(N3CC[C@H](F)C3)ccc2c1=O)C(F)(F)F` (stereo partly drawn) [Example 66, 1-(2,4-Difluorophenyl)-7-[(3S)-3-fluoropyrrolidin-1-yl]-4-oxo-N-[1,1,1-trifluoropentan-2-yl]-1,4-dihydro-1,8-naphthyridine-3-carboxamide], which EC50 (human M2 receptor [2]; [3]) is on record?
Answer: Its EC50 is 0.01 µM.

Question: How did the EC50 (human M2 receptor [2]; [4]) turn out when `O=C(NC(CC(F)(F)F)C1CC1)c1cn(-c2c(F)cc(F)cc2F)c2nc(N3C[C@@H](O)CC3=O)ccc2c1=O` (mixture of isomers) [Example 512, N-[1-Cyclopropyl-3,3,3-trifluoropropyl]-7-[(4S)-4-hydroxy-2-oxopyrrolidin-1-yl]-4-oxo-1-(2,4,6-trifluorophenyl)-1,4-dihydro-1,8-naphthyridine-3-carboxamide] was run?
Answer: The EC50 was 0.01 µM.

Question: What about the Emax (human M2 receptor [2]; M2-GIRK1/4 reporter cells) of the same compound?
Answer: Its Emax is 100%.

Question: `CN(C)c1ccc2c(=O)c(C(=O)NC3CC34CCCCC4)cn(-c3ccc(F)cc3Cl)c2n1` (stereo not drawn) [Example 154, 1-(2-Chloro-4-fluorophenyl)-7-(dimethylamino)-4-oxo-N-(spiro[2.5]oct-1-yl)-1,4-dihydro-1,8-naphthyridine-3-carboxamide] was tested. Which EC50 (human M2 receptor [2]; [3]) did it give?
Answer: Its EC50 is 0.158 µM.

Question: Which EC50 (human M2 receptor [2]; [3]) does the source give for `CC[C@@H](NC(=O)c1cn(-c2ccc(F)cc2F)c2nc(N3CC(OC(=O)NC)CC3=O)ccc2c1=O)C(F)(F)F` (stereo partly drawn) [Example 200, (3S)-1-[8-(2,4-Difluorophenyl)-5-oxo-6-{[(2R)-1,1,1-trifluorobutan-2-yl]carbamoyl}-5,8-dihydro-1,8-naphthyridin-2-yl]-5-oxopyrrolidin-3-yl methyl carbamate] here?
Answer: Its EC50 is 0.293 µM.

Question: Which results are given for `CC[C@H](NC(=O)c1cn(-c2c(F)cc(F)cc2F)c2nc(N3CC(O)C4(CC4)C3)ccc2c1=O)C(F)(F)F` (mixture of isomers) [Example 619, 7-[7-Hydroxy-5-azaspiro[2.4]hept-5-yl]-4-oxo-N-[(2S)-1,1,1-trifluorobutan-2-yl]-1-(2,4,6-trifluorophenyl)-1,4-dihydro-1,8-naphthyridine-3-carboxamide]?
Answer: EC50 (human M2 receptor [2]; [4]): 0.04 µM; Emax (human M2 receptor [2]; M2-GIRK1/4 reporter cells): 88.6%

Question: For `CC(C)C[C@H](NC(=O)c1cn(-c2c(F)cc(F)cc2F)c2nc(N3C[C@@H](O)[C@H](O)C3)ccc2c1=O)C(F)(F)F` [Example 559, 7-[(3R,4R)-3,4-Dihydroxypyrrolidin-1-yl]-4-oxo-N-[(2S)-1,1,1-trifluoro-4-methylpentan-2-yl]-1-(2,4,6-trifluorophenyl)-1,4-dihydro-1,8-naphthyridine-3-carboxamide], which EC50 (human M2 receptor [2]; [4]) is on record?
Answer: Its EC50 is 0.01 µM.

Question: And the Emax (human M2 receptor [2]; M2-GIRK1/4 reporter cells)?
Answer: Its Emax is 99%.

Question: What does the source list for `O=C(Nc1c(Cl)cccc1Cl)c1cn(-c2ccc(F)cc2F)c2nc(N3CC4CC4(O)C3)ccc2c1=O` (racemic) [Example 597, N-(2,6-Dichlorophenyl)-1-(2,4-difluorophenyl)-7-[1-hydroxy-3-azabicyclo[3.1.0]hex-3-yl]-4-oxo-1,4-dihydro-1,8-naphthyridine-3-carboxamide]?
Answer: EC50 (human M2 receptor [2]; [4]): 0.021 µM; Emax (human M2 receptor [2]; M2-GIRK1/4 reporter cells): 95.5%

Question: For `COC1CN(c2ccc3c(=O)c(C(=O)N[C@@H](C4CC4)C(F)(F)F)cn(-c4c(F)cc(F)cc4F)c3n2)CC1O` (mixture of isomers) [Example 582, N-[(1 S)-1-Cyclopropyl-2,2,2-trifluoroethyl]-7-[trans-3-hydroxy-4-methoxypyrrolidin-1-yl]-4-oxo-1-(2,4,6-trifluorophenyl)-1,4-dihydro-1,8-naphthyridine-3-carboxamide], which EC50 (human M2 receptor [2]; [4]) is on record?
Answer: The EC50 was 0.014 µM.

Question: What about the Emax (human M2 receptor [2]; M2-GIRK1/4 reporter cells) of the same compound?
Answer: The Emax was 100%.

Question: How did the EC50 (human M2 receptor [2]; [4]) turn out when `CO[C@@H]1CN(c2ccc3c(=O)c(C(=O)N[C@@H](C4CC4)C(F)(F)F)cn(-c4c(F)cc(F)cc4F)c3n2)C[C@H]1O` (single isomer, unassigned) [Example 584, N-[(1 S)-1-Cyclopropyl-2,2,2-trifluoroethyl]-7-[trans-3-hydroxy-4-methoxypyrrolidin-1-yl]-4-oxo-1-(2,4,6-trifluorophenyl)-1,4-dihydro-1,8-naphthyridine-3-carboxamide] was run?
Answer: The EC50 was 0.016 µM.

Question: And the Efficiency (human M2 receptor [2]; boosting of the acetylcholine effect at EC20 acetylcholine concentration, M2-GIRK1/4 reporter cells)?
Answer: Its Efficiency is 98.0%.

Question: Which EC50 (human M2 receptor [2]; [4]) does the source give for `CC[C@H](NC(=O)c1cn(-c2c(F)cc(F)cc2Cl)c2nc(N3CC4CC4(O)C3)ccc2c1=O)C(F)(F)F` (mixture of isomers) [Example 413, 1-(2-Chloro-4,6-difluorophenyl)-7-[1-hydroxy-3-azabicyclo[3.1.0]hex-3-yl]-4-oxo-N-[(2S)-1,1,1-trifluorobutan-2-yl]-1,4-dihydro-1,8-naphthyridine-3-carboxamide] here?
Answer: Its EC50 is 0.01 µM.

Question: What about the Emax (human M2 receptor [2]; M2-GIRK1/4 reporter cells) of the same compound?
Answer: Its Emax is 100%.
